{"source": "patent US8993595B2", "about": "“Macrocyclic serine protease inhibitors” (priority 2009, dated 2015)", "key": {"[1]": {"test_system": "Replicon cells (genotype 1b)", "assay": "Long-term treatment assay in replicon cells", "format": "cell-based, HCV", "experimental": "Compound 52 was tested in a long-term treatment assay. Replicon cells (genotype 1b) were treated with the compound, without G418, for 14 days, and the level of replicon RNA was measured at multiple time points. At the end of the 14-day treatment, cells were cultured in the absence of the compound, but with or without G418, in 10 cm dishes for 21 days. Surviving cell colonies were then stained with crystal violet and counted."}, "[2]": {"assay": "Cytotoxicity in parallel, colorimetric proliferation assay, 1a replicon cells", "format": "cell-based", "conditions": "human, replicon cells (genotype 1a)"}, "[3]": {"test_system": "genotype 1b replicon cells", "assay": "Selection of drug-resistant genotype 1b replicon cell lines", "format": "cell-based, HCV", "conditions": "all eight selected genotype 1b cell lines", "experimental": "(§1) Replicon cells (genotype 1a or 1b) were treated with various concentrations of compound 52 in the presence of G418. Treatment-emergent genotypic changes were identified by population sequencing of NS3 (both protease and helicase regions). The activity of compound 52 and other compounds was evaluated by NS5A western blot after selection or luciferase assay during and after selection.\n(§2) Eight drug-resistance replicon cell lines were created by long-term culture of genotype 1b replicon cells with 10 or 25 nM of compound 52. NS3 (AAs 1-631) was sequenced at each passage."}, "[4]": {"test_system": "ZlucB cell line (genotype 1b replicon selected with 25 nM compound 52, D168V)", "assay": "Extent of resistance after selection, luciferase assay, ZlucB", "format": "cell-based, HCV", "conditions": "selecting conc. 25 nM, EC50 resistant / EC50 wild-type", "experimental": "as §1, §2"}, "[5]": {"test_system": "H1a-luc cell line (genotype 1a replicon, unselected)", "assay": "Extent of resistance after selection, H1a-luc", "format": "cell-based, HCV", "conditions": "selecting conc. 0 nM", "experimental": "as §1"}, "[6]": {"test_system": "A-1a cell line (genotype 1a replicon selected with 10 nM, D168A)", "assay": "Extent of resistance after selection, A-1a", "format": "cell-based, HCV", "conditions": "selecting conc. 10 nM", "experimental": "as §1"}, "[7]": {"test_system": "replicon bearing NS5B Mutation C316Y", "experimental": "(§3) The activity of compound 52 was evaluated against replicons bearing single protease inhibitor-resistance mutations as compared to its activity against the wild-type replicon. Mutations were introduced into a genotype 1b luciferase-replicon by site-directed mutagenesis. Compound activity was measured in cells transiently transfected with in vitro transcribed wild-type or mutant luciferase-replicon RNA by luciferase assay after 4-day treatment. Replication capacity was determined in untreated transfected cells by comparing the luciferase activity at 4 hrs and 4 days post-transfection.\n(§4) The activity of compound 52 was also tested against replicons bearing a single polymerase inhibitor-resistance mutation. Each mutation confers resistance to a known polymerase inhibitor as reported in the literature."}, "[8]": {"test_system": "replicon bearing NS5B Mutation C445F", "experimental": "as §3, §4"}, "[9]": {"test_system": "replicon bearing NS5B Mutation C445Y", "experimental": "as §3, §4"}, "[10]": {"test_system": "replicon bearing NS5B Mutation M414T", "experimental": "as §3, §4"}, "[11]": {"test_system": "replicon bearing NS5B Mutation M423T", "experimental": "as §3, §4"}, "[12]": {"test_system": "replicon bearing NS5B Mutation S282T", "experimental": "as §3, §4"}, "[13]": {"test_system": "replicon bearing NS5B Mutation Y448H", "experimental": "as §3, §4"}, "human CYP450 1A2": {"biological_target": "T1, human CYP450 1A2 (Homo sapiens, UniProt P05177)", "T1 construct": "purchased BD Bioscience", "T1 sequence (P05177 whole entry)": "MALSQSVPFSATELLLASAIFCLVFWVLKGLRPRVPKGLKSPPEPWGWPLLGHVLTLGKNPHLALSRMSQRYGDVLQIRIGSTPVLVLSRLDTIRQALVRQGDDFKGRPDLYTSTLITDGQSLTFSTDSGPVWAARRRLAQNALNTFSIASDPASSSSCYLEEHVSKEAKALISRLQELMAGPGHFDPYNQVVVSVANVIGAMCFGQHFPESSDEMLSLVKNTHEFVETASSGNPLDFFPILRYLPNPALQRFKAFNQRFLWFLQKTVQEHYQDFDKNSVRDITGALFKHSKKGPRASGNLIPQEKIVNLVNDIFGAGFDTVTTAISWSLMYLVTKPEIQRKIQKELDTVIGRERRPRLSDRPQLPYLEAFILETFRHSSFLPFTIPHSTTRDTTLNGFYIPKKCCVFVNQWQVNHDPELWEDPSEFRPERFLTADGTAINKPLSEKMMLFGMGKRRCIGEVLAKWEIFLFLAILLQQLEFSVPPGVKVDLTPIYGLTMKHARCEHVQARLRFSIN", "assay": "CYP450 inhibition assay, 1A2", "format": "in vitro ADME", "experimental": "(§5) Compound 52 was incubated with human CYP450 cDNA-expressed isoenzymes according to the protocol (BD Bioscience). For CYP2C9, a luminogenic substrate was used with the P450-Glo™ kit. In addition, the effect of the compound on CYP2C9-mediated diclofenac metabolism was measured by LC-UV. The potential inhibitory effect of the compound on human UGT1A1 was examined using human liver microsomes and bilirubin as substrate. The metabolites (mono- and di-glucuronidated bilirubin) were measured by LC-UV."}, "human CYP450 2C9": {"biological_target": "T2, human CYP450 2C9 (Homo sapiens, UniProt P11712)", "T2 construct": "purchased BD Bioscience", "T2 sequence (P11712 whole entry)": "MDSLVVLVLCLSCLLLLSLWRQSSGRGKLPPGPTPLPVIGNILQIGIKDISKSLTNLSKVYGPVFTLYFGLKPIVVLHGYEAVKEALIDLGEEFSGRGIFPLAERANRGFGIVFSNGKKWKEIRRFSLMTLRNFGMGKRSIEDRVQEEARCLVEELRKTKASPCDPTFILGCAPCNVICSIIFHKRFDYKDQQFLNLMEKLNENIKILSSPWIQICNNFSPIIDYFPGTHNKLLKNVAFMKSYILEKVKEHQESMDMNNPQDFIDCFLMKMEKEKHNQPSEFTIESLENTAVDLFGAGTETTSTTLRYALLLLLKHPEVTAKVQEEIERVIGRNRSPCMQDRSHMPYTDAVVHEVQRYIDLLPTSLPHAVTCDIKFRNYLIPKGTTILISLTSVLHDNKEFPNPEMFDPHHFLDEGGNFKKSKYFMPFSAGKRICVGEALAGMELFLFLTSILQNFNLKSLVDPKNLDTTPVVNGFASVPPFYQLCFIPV", "assay": "CYP450 inhibition assay, 2C9", "format": "in vitro ADME", "experimental": "as §5"}, "CD-1 mice": {"test_system": "CD-1 mice", "format": "in vivo", "conditions": "oral doses up to 2,000 mg/kg", "experimental": "The potential for compound 52 to induce mutations in a bacterial system (S. typhimurium and E. coli—at concentrations up to 5,000 μg/plate), to induce chromosomal aberrations in cultures of human peripheral blood lymphocytes (at concentrations up to 84 μg/mL), and to induce clastogenic and/or aneugenic activity in CD-1 mice (at oral doses up to 2,000 mg/kg) was evaluated. The two in vitro studies were performed with and without the addition of a mammalian metabolic activation system (rat liver S9 subcellular fraction)."}, "in vitro": {"assay": "in vitro", "conditions": "human, Caco-2, pH 7.4", "experimental": "Caco-2 cells were grown to confluence on collagen-coated, microporous, polycarbonate membranes in 12-well Costar Transwell plates. 5 μM of compound 52 was prepared in Hanks balanced salt solution containing 10 mM HEPES and 15 mM glucose at a pH of 7.4. Cell monolayers were dosed on the apical side (A-to-B) or basolateral side (B-to-A). Samples were taken from the receiver chambers at 120 min and quantified by LC-MS/MS."}, "[14]": {"conditions": "mouse plasma"}}, "data": [{"smiles": "COc1ccc2c(O[C@H]3CCN4C(=O)N(C)CCCC/C=C\\[C@@H]5C[C@@]5(C(=O)NS(=O)(=O)C5(C)CC5)NC(=O)[C@@H]4C3)cc(-c3nc(C(F)(F)F)cs3)nc2c1C", "note": "[Compound 52, 1-methyl-cyclopropanesulfonic acid{(Z)-(1S,4R,6S,18S)-18-[7-methoxy-8-methyl-2-(4-trifluoromethyl-thiazol-2-yl)-quinolin-4-yloxy]-13-methyl-2,14-dioxo-3,13,15-triaza-tricyclo[13.4.0.0*4,6*]nonadec-7-ene-4-carbonyl}amide]", "values": [{"measurement": "colonies remained on average", "setting": "[1]; 14-day treatment with 10 nM, then cultured with G418 for 21 days", "value": 6, "unit": "colonies"}, {"measurement": "mean maximal RNA reduction", "setting": "[1]; replicon RNA, after 10 days of treatment with 10 nM, without G418", "value": 3.7, "unit": "log10"}, {"measurement": "CC50 at 5 days", "setting": "[2]", "value": "> 77", "unit": "µM"}, {"measurement": "fold-change values (resistance)", "setting": "[3]", "value": "no less than 250"}, {"measurement": "Fold-Change", "setting": "[4]", "value": "1037 ± 144"}, {"measurement": "Fold-Change", "setting": "[5]", "value": 1}, {"measurement": "Fold-Change", "setting": "[6]", "value": "589 ± 442"}, {"measurement": "Fold-Change", "setting": "[7]", "value": "1.7 ± 0.6"}, {"measurement": "Fold-Change", "setting": "[8]", "value": "0.9 ± 0.07"}, {"measurement": "Fold-Change", "setting": "[9]", "value": "0.9 ± 0.07"}, {"measurement": "Fold-Change", "setting": "[10]", "value": "1.6 ± 0.5"}, {"measurement": "Fold-Change", "setting": "[11]", "value": "0.9 ± 0.08"}, {"measurement": "Fold-Change", "setting": "[12]", "value": "1.4 ± 0.6"}, {"measurement": "Fold-Change", "setting": "[13]", "value": "1.7 ± 0.4"}, {"measurement": "IC50", "setting": "human CYP450 1A2", "value": "≥ 10", "unit": "µM"}, {"measurement": "IC50", "setting": "human CYP450 2C9", "value": "≥ 10", "unit": "µM"}, {"measurement": "genotoxicity, mouse micronucleus test", "setting": "CD-1 mice", "value": "no genotoxicity"}, {"measurement": "Papp", "setting": "in vitro", "value": 1.8, "unit": "×10⁻⁶ cm/s"}, {"measurement": "efflux ratio", "setting": "in vitro", "value": 2.7}, {"measurement": "protein bound in plasma", "setting": "[14]", "value": 99.2, "unit": "%"}]}]}
